Experimental data: US20230172878A1, “COMPOSITIONS AND METHODS FOR TREATING CYTOKINE STORMS” (priority 2020, published 2023)

Assays:
rats = conditions: 10× higher doses than the human equivalent dose proposed for clinical trials; cited from earlier work
mice [1] = conditions: 10× higher doses than the human equivalent dose proposed for clinical trials; cited from earlier work
dogs = conditions: 10× higher doses than the human equivalent dose proposed for clinical trials; cited from earlier work
PBMCs [2] = assay: Cytokine production by morpholinofructose-stimulated PBMCs from two donors; type: cell-based, human
Description: For FIGS. 2 through 7, cells from two donors were used, each in a separate independent study. Cytokines secreted in the media by the cells were measured at 2, 4, 6, 24 and 48 hours.
In the following examples cells were stimulated known cytokine stimulants, either lipopolysaccharide (“LPS”) or morpholino fructose. […] Varying levels of meglumine, or a salt thereof were then administered to the stimulated cells and the resulting cytokine levels measured.
Peripheral blood mononuclear cells (“PBMC”s) from two donors were used to measure cytokine levels in response to various inputs. For each donor, one group of PBMCs were untreated. One group was allowed to remain in cell culture. A different group was treated with 40 mM meglumine. Another group was treated with morpholinofructose at 40 mM concentration. Three remaining groups were treated with morpholinofructose at 40 mM concentration and meglumine at concentration of 20 mM, 40 mM, and 80 mM. The groups were allowed to incubate for up to 50 hours. Cytokines secreted in the media by the cells were measured at 2, 4, 6, 24 and 48 hours The percentage of cells positive for IL-6 was determined by flow cytometry.
The same protocol was used to measure the addition of meglumine to reduce the levels of TNF-α (FIGS. 3A and 3B), MIP-1α (FIGS. 4A and 4B), MCP-1(FIGS. 5A and 5B), and MCP-1 ((FIGS. 6A and 6B).

PBMCs [3] = assay: LPS-stimulated cytokine-positive PBMCs, flow cytometry; type: cell-based, human; conditions: 4 hours
Description: Lipopolysaccharide (LPS) at […] concentration was used as a positive control for cytokine production in PBMCs. Meglumine was added at 40 mM and the cells allowed to incubate for 4 hours before sorting. […] (p<0.05 vs unstimulated and p<0.05 vs LPS). FIG. 8. The same protocol was sued to measure IL-1α production. […] FIG. 9.

THP-1 cells = assay: LPS-induced cytokine secretion by THP-1 cells; type: cell-based, human; conditions: LPS 25 ng/ml, 24 hours
Description: THP-1 cells (a human monocytic cell line derived from an acute monocytic leukemia patient) were cultured to 80% confluence. The THP-1 cells were then treated with LPS at 25 ng/ml to induce cytokine secretion. Cells were treated with either various concentration of meglumine. Tissue culture media was harvested at 24 hours and the levels of cytokines were determined.

mice [4] = conditions: cited from earlier work

CNC[C@H](O)[C@@H](O)[C@H](O)[C@H](O)CO.Cl [meglumine HCl]
safety (rats): safe | safety (mice [1]): safe | safety (dogs): safe

CNC[C@H](O)[C@@H](O)[C@H](O)[C@H](O)CO [meglumine, (2R,3R,4R,5S)-6-(Methylamino)hexane-1,2,3,4,5-pentol]
IL-6 levels in the PBMCs (PBMCs [2]; 40 mM morpholinofructose plus meglumine 20, 40, 80 mM, measured at 2, 4, 6, 24 and 48 hours): reduced the IL-6 levels | TNF-α production (PBMCs [2]; 40 mM morpholinofructose plus various concentrations of meglumine, FIGS. 3A, 3B): decreased | MIP 1α production (PBMCs [2]; 40 mM morpholinofructose plus various concentrations of meglumine, FIGS. 4A, 4B): decreased | MCP 1 production (PBMCs [2]; 40 mM morpholinofructose plus various concentrations of meglumine, FIGS. 5A, 5B): decreased | IL-10 production (PBMCs [2]; 40 mM morpholinofructose plus various concentrations of meglumine, FIGS. 6A, 6B): decreased | LPS-stimulated increase in the percentage of IL-6 positive PBMCs (PBMCs [3]; LPS 40 mM, meglumine 40 mM, p<0.05 vs unstimulated and vs LPS, FIG. 8): significantly reduced | percentage of PBMCs expressing IL-1α (PBMCs [3]; combination of LPS and meglumine 40 mM, FIG. 9): significantly increased | lowest concentration at which cytokine reduction was exhibited (THP-1 cells): 10 mm | secretion of IL-8 (THP-1 cells; meglumine at high concentrations, FIG. 11): ability to interfere with the secretion | secretion of MIP-1α (THP-1 cells; meglumine at high concentrations, FIG. 13): ability to interfere with the secretion | secretion of MIP-1β (THP-1 cells; meglumine at high concentrations, FIG. 14): ability to interfere with the secretion | secretion of VEGF (THP-1 cells; meglumine at high concentrations, FIG. 15): ability to interfere with the secretion

O=C(CN1CCOCC1)[C@@H](O)[C@H](O)[C@H](O)CO [morpholinofructose, reference compound]
IL-6 production versus control cells (PBMCs [2]; human PBMCs incubated with 40 mM morpholinofructose, FIG. 7): significantly more IL-6 than control cells

COc1cc2nc(N3CCN(C(=O)c4ccco4)CC3)nc(N)c2cc1OC [Prazosin, prazosin]
catecholamines and cytokine responses (mice [4]): reduces | survival (mice [4]; following various hyper-inflammatory stimuli): markedly increased survival
